# Experimental data from article PMC7693658, “SaUspA, the Universal Stress Protein of Sulfolobus acidocaldarius Stimulates the Activity of the PP2A Phosphatase and Is Involved in Growth at High Salinity” (Frontiers in Microbiology, 2020).
# T1: ArnD (Sulfolobus acidocaldarius, UniProt Q4J879)
# T1 construct: gene Saci_1694; purified kinase; expression in E. coli Rosetta (DE3)/pLysS, construct details in earlier work
# T1 sequence (Q4J879 1-413): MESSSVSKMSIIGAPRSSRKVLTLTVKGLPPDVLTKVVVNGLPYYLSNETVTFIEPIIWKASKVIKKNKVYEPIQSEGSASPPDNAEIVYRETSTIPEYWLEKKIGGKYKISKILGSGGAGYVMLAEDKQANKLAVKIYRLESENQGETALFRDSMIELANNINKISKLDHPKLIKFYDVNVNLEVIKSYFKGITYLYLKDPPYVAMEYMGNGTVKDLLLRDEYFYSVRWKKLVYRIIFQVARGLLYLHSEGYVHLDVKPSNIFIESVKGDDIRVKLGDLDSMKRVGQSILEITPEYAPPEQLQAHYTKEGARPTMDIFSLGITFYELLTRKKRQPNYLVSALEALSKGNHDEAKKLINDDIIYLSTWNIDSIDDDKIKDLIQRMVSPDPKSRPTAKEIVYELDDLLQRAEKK
# T2: ArnC (Sulfolobus acidocaldarius, UniProt Q4J9J0)
# T2 construct: gene Saci_1193; purified kinase; expression in E. coli Rosetta (DE3)/pLysS, construct details in earlier work
# T2 sequence (Q4J9J0 1-663): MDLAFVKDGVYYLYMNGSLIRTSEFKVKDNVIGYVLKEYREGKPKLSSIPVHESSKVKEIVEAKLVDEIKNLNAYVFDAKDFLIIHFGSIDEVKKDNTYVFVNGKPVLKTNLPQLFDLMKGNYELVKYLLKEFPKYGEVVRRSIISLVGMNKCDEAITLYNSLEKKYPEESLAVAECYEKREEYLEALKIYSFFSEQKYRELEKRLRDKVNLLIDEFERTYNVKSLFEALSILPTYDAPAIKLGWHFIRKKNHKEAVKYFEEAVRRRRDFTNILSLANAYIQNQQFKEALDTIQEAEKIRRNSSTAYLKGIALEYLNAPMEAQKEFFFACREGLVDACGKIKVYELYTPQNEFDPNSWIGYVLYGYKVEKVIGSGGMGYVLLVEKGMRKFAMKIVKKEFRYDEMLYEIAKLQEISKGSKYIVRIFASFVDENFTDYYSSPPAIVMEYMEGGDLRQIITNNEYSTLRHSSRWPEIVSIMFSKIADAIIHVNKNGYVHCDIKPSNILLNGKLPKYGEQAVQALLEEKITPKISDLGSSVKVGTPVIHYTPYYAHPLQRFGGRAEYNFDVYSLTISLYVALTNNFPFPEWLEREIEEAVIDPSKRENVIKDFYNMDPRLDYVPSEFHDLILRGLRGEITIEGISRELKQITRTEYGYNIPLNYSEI
# T3: SaUspA (Sulfolobus acidocaldarius, UniProt Q4JAC8)
# T3 construct: gene Saci_0887
# T3 sequence (Q4JAC8 1-128): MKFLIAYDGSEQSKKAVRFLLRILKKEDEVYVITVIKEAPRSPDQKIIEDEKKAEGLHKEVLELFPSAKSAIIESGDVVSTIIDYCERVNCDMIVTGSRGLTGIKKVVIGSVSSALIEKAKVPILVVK
# Legend:
# ArnD = target: T1, ArnD; experiment: in vitro phosphorylation, autophosphorylation; assay type: biochemical; details: 1 mM MnCl2, pH 8, 55°C; labelled compound
# ArnC = target: T2, ArnC; experiment: in vitro phosphorylation, autophosphorylation; assay type: biochemical; details: 1 mM MnCl2, pH 8, 55°C; labelled compound
# SaUspA = target: T3, SaUspA; experiment: Ni-NTA co-purification with PP2A-his, Western blot; details: 1 mM ATP, 5 mM MgCl2, pH 8; ATP increases binding to PP2A
# [1] = target: the molecule itself; experiment: SEC; purified Strep II-tagged SaUspA on a Superdex 200 10/300 GL column in lysis buffer (50 mM Tris pH8, 150 mM NaCl); standards of 158, 44, 17 and 1.35 kDa; peak at about 30 kDa against 16.2 kDa for the monomer
Molecule,"in vitro phosphorylation, autophosphorylation (ArnD)","in vitro phosphorylation, autophosphorylation (ArnC)","Ni-NTA co-purification with PP2A-his, Western blot (SaUspA)",stoichiometry N [1]
Nc1ncnc2c1ncn2[C@@H]1O[C@H](COP(=O)(O)OP(=O)(O)OP(=O)(O)O)[C@@H](O)[C@H]1O [ATP],autophosphorylation was detected for both ArnC and ArnD,autophosphorylation was detected for both ArnC and ArnD,This indicated that ATP-binding of SaUspA enhanced its interaction with PP2A,–
"C-terminally StrepII-tagged SaUspA (universal stress protein UspA of Sulfolobus acidocaldarius, Saci_0887) (natural protein, UniProt Q4JAC8 1-128, looked up, SaUspA (UspA, Saci_0887), universal stress protein of Sulfolobus acidocaldarius; printed molecular weight 16.2 kDa; Made nucleotide free by ammonium sulfate precipitation; in some samples pre-incubated with 1 mM ATP and 5 mM MgCl2; also called SaUspA-Strep; SaUspA^WT; not shown: StrepII, C-terminal, kept) MKFLIAYDGSEQSKKAVRFLLRILKKEDEVYVITVIKEAPRSPDQKIIEDEKKAEGLHKEVLELFPSAKSAIIESGDVVSTIIDYCERVNCDMIVTGSRGLTGIKKVVIGSVSSALIEKAKVPILVVK",–,–,–,2
